# According to patent US20050202463A1, “Modulators of dimethylarginine dimethylaminohydrolase and methods of use thereof” (priority 2003, published 2005):
# Key:
# ADMA levels = conditions: reported in the literature (Stuhlinger et al. 2002; Wheatcroft et al. 2003); cited from earlier work
# mice = test: plasma glucose clearance after i.p. insulin (insulin sensitivity); assay type: in vivo; conditions: wild-type female mice, ADMA 75 mg/kg i.p. after 4 h fasting, insulin injected 2 h later, compared to PBS-treated wild-type mice
# Protocol: Experiments were performed to assess insulin sensitivity by measuring plasma glucose clearance rate in these DDAH transgenic mice. After 4 hours of fasting, wildtype female mice were injected intraperitoneally with either ADMA (75 mg/kg), which induces insulin resistance, or phosphate buffered saline (PBS); the same dosage was given to the transgenic mice (n=3 in each group). After two hours, insulin was injected; venous blood glucose was assayed by a glucometer every 5 minutes for an hour. The half-life of glucose disappearance from plasma was calculated using a first-order decay model; plasma ADMA was measured by HPLC.
smiles,measurement,setting,value
CN(C)C(=N)N=C(N)N [metformin],effect on ADMA levels,ADMA levels,decrease circulating ADMA levels
"CN(C)C(N)=NCCC[C@H](N)C(=O)O [ADMA, asymmetric dimethylarginine]",plasma glucose response to insulin,mice,delayed and attenuated drop in plasma glucose in response to insulin
